In US20210347785A1, “PREPARATION AND APPLICATION OF AROMATIC COMPOUND HAVING IMMUNOREGULATORY FUNCTION” (SHANGHAI ENNOVABIO PHARMACEUTICALS CO., LTD., priority 2018, published 2021):

Target: T1, PD-1/PD-L1 (Homo sapiens, UniProt Q9NZQ7)
T1 construct: purchased Cisbio 63ADK000CPDEC
Test: PD-1/PD-L1 homogeneous time-resolved fluorescence (HTRF) binding assay
Conditions: 665 nm/620 nm ratio
From the text: Test Example 1: Detect the Inhibitory Effect of the Compound to the Binding of PD-1/PD-L1 Protein
The PD-1/PD-L1 homogeneous time-resolved fluorescence method is used to detect the binding ability of the compound with PD-L1.
PD-1/PD-L1 binding assay kit (Cisbio, Cat #63ADK000CPDEC) was chosen, which contains two proteins Tag 1-PD-L1 and Tag 2-PD-1, and two antibodies Anti-Tag1-Eu^3+ and Anti-Tag2-XL 665. The principle of detection was: Anti-tag1-Eu^3+ was used as the donor of HTRF, and Anti-Tag2-XL 665 was used as the acceptor of HTRF. When Tag 1-PD-L1 interacts with Tag 2-PD-1, the added HTRF donor and the acceptor are close to each other. After the donor has received the excitation energy, part of the energy was transferred to the acceptor, thus generating 665 nm emission light. […] The inhibitory effect of the compound can be determined by comparing the ratio of 665 nm/620 nm. Tag 1-PD-L1 was diluted with Diluent buffer (cat #62DLBDDF) to a working concentration of 10 nM, Tag 2-PD-1 was diluted with Diluent buffer to a working concentration of 500 nM, Anti-Tag1-Eu^3+ was diluted with detection buffer (cat #62DB1FDG) at a ratio of 1:100, Anti-Tag2-XL 665 was diluted with detection buffer at a ratio of 1:20, and the compound to be detected was diluted with diluent buffer to a final concentration of 2×. Compound solution (2 μL) was added to each well of a 384-well plate, then Tag 1-PD-L1 (4 μL) and Tag 2-PD-1 (4 μL) were added successively. The mixture was incubated at room temperature for 15 minutes. Then Anti-Tag1-Eu^3+ (5 μL) and Anti-Tag2-XL 665 (5 μL) were added, and the mixture was incubated overnight at room temperature. BioTek Synergy™ Neo2 multifunctional microplate reader was used to detect so as to provide the 665 nm/620 nm ratio. PrismGraphd 5.02 was used to fit the IC50 curve.

T1 sequence (Q9NZQ7 19-238 limits assumed): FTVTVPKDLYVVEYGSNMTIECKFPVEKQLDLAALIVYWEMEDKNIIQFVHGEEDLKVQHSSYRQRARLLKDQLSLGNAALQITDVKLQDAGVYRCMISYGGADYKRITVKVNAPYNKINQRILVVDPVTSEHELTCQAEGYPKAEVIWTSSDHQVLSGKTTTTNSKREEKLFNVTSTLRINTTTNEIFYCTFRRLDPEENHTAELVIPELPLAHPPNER

SMILES	IC50 [nM]
COc1nc(-c2cccc(-c3cccc(Nc4nccc5sc(CN6CCC[C@@H]6C(=O)O)nc45)c3Cl)c2Cl)cc(C)c1CNC[C@@H]1CCC(=O)N1 [Compound 47]	< 100
COc1nc(-c2cccc(-c3cccc(Nc4nccc5sc(CN6C[C@@H](O)C[C@H]6C(=O)O)nc45)c3Cl)c2Cl)cc(C)c1CNC[C@@H]1CCC(=O)N1 [Compound 48]	< 100
COc1nc(-c2cccc(-c3cccc(Nc4nccc5sc(CN6CCC(C)(C(=O)O)CC6)nc45)c3Cl)c2Cl)cc(C)c1CNC[C@@H]1CCC(=O)N1 [Compound 49]	< 100
COc1nc(-c2cccc(-c3cccc(Nc4nccc5sc(CN[C@H]6CC[C@H](C(=O)O)CC6)nc45)c3Cl)c2Cl)cc(C)c1CNC[C@@H]1CCC(=O)N1 [Compound 50]	< 100
COc1nc(-c2cccc(-c3cccc(Nc4nccc5sc(CN[C@H]6CC[C@@H](C(=O)O)CC6)nc45)c3Cl)c2Cl)cc(C)c1CNC[C@@H]1CCC(=O)N1 [Compound 51]	< 100
COc1nc(-c2cccc(-c3cccc(Nc4nccc5sc(CN6CCC(CC(=O)O)C6)nc45)c3Cl)c2Cl)cc(C)c1CNC[C@@H]1CCC(=O)N1 (stereo partly drawn) [Compound 52]	< 100
COc1nc(-c2cccc(-c3cccc(Nc4nccc5sc(CN6CCC(CC(=O)O)CC6)nc45)c3Cl)c2Cl)cc(C)c1CNC[C@@H]1CCC(=O)N1 [Compound 53]	< 100
COc1cc(-c2cccc(-c3cccc(Nc4nccc5sc(CN6CCC(C(=O)O)CC6)nc45)c3Cl)c2Cl)cc(C)c1CNC[C@@H]1CCC(=O)N1 [Compound 55]	< 100
COc1nc(-c2cccc(-c3cccc(Nc4nccc5sc(CN6CCC(C#N)CC6)nc45)c3Cl)c2Cl)cc(C)c1CNC[C@@H]1CCC(=O)N1 [Compound 56]	< 100
